In patent US10526327B2, “Histone demethylase inhibitors” (CELGENE QUANTICEL RESEARCH, INC., priority 2013, dated 2020):

Experiments:
Jarid1A = biological target: T1, Jarid1A (Homo sapiens, UniProt P29375); assay: Jarid1A in vitro enzyme inhibition assay (TR-FRET); type: biochemical
T1 construct: purchased BPS Bioscience 50110
T1 sequence (P29375 1-1090): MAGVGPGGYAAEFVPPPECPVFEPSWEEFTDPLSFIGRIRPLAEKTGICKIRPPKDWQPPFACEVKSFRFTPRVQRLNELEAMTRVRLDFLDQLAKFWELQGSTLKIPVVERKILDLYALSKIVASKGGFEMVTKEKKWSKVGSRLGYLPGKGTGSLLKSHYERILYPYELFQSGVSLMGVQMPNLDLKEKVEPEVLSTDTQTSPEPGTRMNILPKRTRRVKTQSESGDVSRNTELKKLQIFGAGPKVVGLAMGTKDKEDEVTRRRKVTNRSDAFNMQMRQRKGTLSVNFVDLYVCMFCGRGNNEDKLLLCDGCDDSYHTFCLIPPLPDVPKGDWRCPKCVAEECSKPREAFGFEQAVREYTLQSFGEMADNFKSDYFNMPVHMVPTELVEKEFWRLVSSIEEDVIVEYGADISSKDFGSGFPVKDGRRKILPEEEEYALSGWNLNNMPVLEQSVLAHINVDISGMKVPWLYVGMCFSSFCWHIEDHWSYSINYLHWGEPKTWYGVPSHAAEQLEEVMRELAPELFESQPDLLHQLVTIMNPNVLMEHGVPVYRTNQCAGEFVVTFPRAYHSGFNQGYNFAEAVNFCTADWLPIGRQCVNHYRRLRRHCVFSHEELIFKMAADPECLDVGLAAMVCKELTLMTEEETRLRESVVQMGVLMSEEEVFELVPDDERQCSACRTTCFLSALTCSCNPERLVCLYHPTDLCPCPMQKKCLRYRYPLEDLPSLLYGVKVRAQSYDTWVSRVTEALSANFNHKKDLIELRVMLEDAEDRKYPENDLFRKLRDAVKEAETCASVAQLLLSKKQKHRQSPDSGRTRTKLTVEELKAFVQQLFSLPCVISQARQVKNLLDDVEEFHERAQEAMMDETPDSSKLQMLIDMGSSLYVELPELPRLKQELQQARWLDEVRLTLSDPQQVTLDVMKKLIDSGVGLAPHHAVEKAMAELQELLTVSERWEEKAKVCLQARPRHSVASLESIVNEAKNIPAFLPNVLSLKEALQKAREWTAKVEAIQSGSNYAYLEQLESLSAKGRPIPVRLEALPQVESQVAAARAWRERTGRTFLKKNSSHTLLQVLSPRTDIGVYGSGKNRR
In short: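 Demethylation of 300 nM biotin-H3K4me3 peptide by 1 nM baculovirus-expressed Jarid1A (aa 1–1090) with 2 μM α-ketoglutarate, Fe(II) and ascorbate, pH 7.3, 30 min at room temperature. Stopped with EDTA; H3K4me1-2 product detected by TR-FRET (Eu anti-H3K4me1-2/streptavidin-APC). IC50 fitted from 665/615 ratio over 11-point dilutions.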

KDM5A/B = assay: In vitro cell-based assay: immuno-blot quantification of tri-methyl H3K4 in ZR-75-1 breast cancer cells; details: 72 hours, tri-methyl H3K4 level relative to GAPDH, percent of DMSO, read-out: Cellular IC50
Text: An assay to measure the degree of cellular inhibition of KDM5A and 5B was developed. This quantitative immuno-blotting assay measures the amount tri-methylated histone H3 at amino acid Lysine number 4, a specific substrate […] of the direct enzymatic activity of the histone demethylases KDM5A and KDM5B from extracts of the ZR-75-1 breast cancer cell line.
This assay is a fluorometric immunoassay for the quantification of tri-methyl H3K4 extracted from cells treated with test compound and is used as a measure of the cellular inhibition of KDM5A/B.
ZR-75-1 (PTEN null, ER+) breast cancer cells numbering 50,000 (ATCC) were seeded into each well of a 96-well tissue culture treated plate and then exposed to an 11 point dilution of test compound with final concentration ranges of test compound ranging from 1250 μM to 10 nM. Cells were left in the presence of test compound for 72 hours. Extracts were prepared containing all of the cellular histone material using detergent based lysis and sonication methods. These lysates were subsequently normalized for total protein content using a colorimetric bicinchonic acid assay (MicroBCA Pierce/Thermo Scientific). Normalized cell extracts were then subjected to typical immuno-blotting procedures using NuPage reagents (Life Technologies). Electrophoretically separated histones were then transferred and immobilized using polyvinylidene difluoride membrane (Immobilon-FL Millipore). The amount of tri-methylated lysine 4 of histone H3 was detected using an antibody specific to the tri-methylated state (Cell Signaling Technologies) and quantified on an infrared imager using a densitometry software package (Odyssey CLx, Image Studio, Li-Cor). This background subtracted densitometry value was reported as a ration of the GAPDH amount for that sample and then calculated as a percent of the DMSO treated sample. The software package XL-fit (IDBS) was then used to calculate a relative IC50 value for the dilution series of a given test compound according to the equation: fit=(D+((Vmax*(x^n))/((x^n)+(Km^n)))).

Structure (SMILES)	IC50 (Jarid1A) [nM]	IC50 (KDM5A/B) [nM]
O=S(=O)(C1CC1)N1CCCC(n2cc(Oc3nc(O)c4ccncc4n3)cn2)C1 (stereo in doubt) [Example 151, 2-({1-[(3S)-1-(cyclopropanesulfonyl)piperidin-3-yl]-1H-pyrazol-4-yl}oxy)pyrido[3,4-d]pyrimidin-4-ol]	≤ 100	100 to 1000
Oc1nc(OCCC(F)(F)F)nc2cnccc12 [Example 13, 2-(3,3,3-trifluoropropoxy)pyrido[3,4-d]pyrimidin-4-ol]	≤ 100	> 10000
CC(C)CCOc1nc(O)c2ccncc2n1 [Example 15, 2-(3-methylbutoxy)pyrido[3,4-d]pyrimidin-4-ol]	≤ 100	> 10000
Oc1nc(OCCc2ccccc2)nc2cnccc12 [Example 18, 2-(2-phenylethoxy)pyrido[3,4-d]pyrimidin-4-ol]	≤ 100	1000 to 10000
Oc1nc(OCCCC(F)(F)F)nc2cnccc12 [Example 20, 2-(4,4,4-trifluorobutoxy)pyrido[3,4-d]pyrimidin-4-ol]	≤ 100	> 10000
Cn1cnc(-c2nccc3c(O)nc(Oc4ccc(Cl)c(Cl)c4)nc23)c1 [Example 113, 2-(3,4-dichlorophenoxy)-8-(1-methyl-1H-imidazol-4-yl)pyrido[3,4-d]pyrimidin-4-ol]	≤ 100	100 to 1000
CCC(c1ccccc1)n1cc(Oc2nc(O)c3ccncc3n2)cn1 (stereo not shown) [Example 115, 2-{[1-(1-phenylpropyl)-1H-pyrazol-4-yl]oxy}pyrido[3,4-d]pyrimidin-4-ol]	≤ 100	1000 to 10000
C[C@H](c1ccccc1)n1cc(Oc2nc(O)c3ccncc3n2)cn1 [Example 117, 2-({1-[(1R)-1-phenylethyl]-1H-pyrazol-4-yl}oxy)pyrido[3,4-d]pyrimidin-4-ol]	≤ 100	1000 to 10000
C[C@@H](c1ccccc1)n1cc(Oc2nc(O)c3ccncc3n2)cn1 [Example 118, 2-({1-[(1S)-1-phenylethyl]-1H-pyrazol-4-yl}oxypyrido) [3,4-d]pyrimidin-4-ol]	≤ 100	100 to 1000
C[C@H](c1ccccc1F)n1cc(Oc2nc(O)c3ccncc3n2)cn1 [Example 119, 2-({1-[(1R)-1-(2-fluorophenyl)ethyl]-1H-pyrazol-4-yl}oxy)pyrido[3,4-d]pyrimidin-4-ol]	≤ 100	100 to 1000
C[C@@H](c1ccccc1F)n1cc(Oc2nc(O)c3ccncc3n2)cn1 [Example 120, 2-({1-[(1s)-1-(2-fluorophenyl)ethyl]-1H-pyrazol-4-yl}oxy)pyrido[3,4-d]pyrimidin-4-ol]	≤ 100	1000 to 10000
Oc1nc(Oc2cnn(Cc3ccccc3Cl)c2)nc2cnccc12 [Example 121, 2-({1-[(2-chlorophenyl)methyl]-1H-pyrazol-4-yl}oxy)pyrido[3,4-d]pyrimidin-4-ol]	≤ 100	1000 to 10000
Oc1nc(Oc2cnn(Cc3cccc(Cl)c3)c2)nc2cnccc12 [Example 122, 2-({1-[(3-chlorophenyl)methyl]-1H-pyrazol-4-yl}oxy)pyrido[3,4-d]pyrimidin-4-ol]	≤ 100	1000 to 10000
Oc1nc(Oc2cnn(CCN3CCOCC3)c2)nc2cnccc12 [Example 124, 2-({1-[2-(morpholin-4-yl)ethyl]-1H-pyrazol-4-yl}oxy)pyrido[3,4-d]pyrimidin-4-ol]	≤ 100	100 to 1000
Oc1nc(Oc2cnn([C@@H]3CCNC3)c2)nc2cnccc12 [Example 125, 2-({1-[(3R)-pyrrolidin-3-yl]-1H-pyrazol-4-yl}oxy)pyrido[3,4-d]pyrimidin-4-ol]	≤ 100	> 10000
CCS(=O)(=O)N1CC[C@@H](n2cc(Oc3nc(O)c4ccncc4n3)cn2)C1 [Example 126, 2-({1-[(3R)-1-(ethanesulfonyl)pyrrolidin-3-yl]-1H-pyrazol-4-yl}oxy)pyrido[3,4-d]pyrimidin-4-ol]	≤ 100	> 10000
O=S(=O)(C1CC1)N1CC[C@@H](n2cc(Oc3nc(O)c4ccncc4n3)cn2)C1 [Example 127, 2-({1-[(3R)-1-(cyclopropanesulfonyl)pyrrolidin-3-yl]-1H-pyrazol-4-yl}oxy)pyrido[3,4-d]pyrimidin-4-ol]	≤ 100	1000 to 10000
O=S(=O)(c1ccccc1)N1CC[C@@H](n2cc(Oc3nc(O)c4ccncc4n3)cn2)C1 [Example 128, 2-({1-[(3R)-1-(benzenesulfonyl)pyrrolidin-3-yl]-1H-pyrazol-4-yl}oxy)pyrido[3,4-d]pyrimidin-4-ol]	≤ 100	1000 to 10000
CC(=O)N1CC[C@@H](n2cc(Oc3nc(O)c4ccncc4n3)cn2)C1 [Example 129, 1-[(3R)-3-[4-({4-hydroxypyrido[3,4-d]pyrimidin-2-yl}oxy)-1H-pyrazol-1-yl]pyrrolidin-1-yl]ethan-1-one]	≤ 100	> 10000
N#CCC(=O)N1CC[C@@H](n2cc(Oc3nc(O)c4ccncc4n3)cn2)C1 [Example 130, 3-[(3R)-3-[4-({4-hydroxypyrido[3,4-d]pyrimidin-2-yl}oxy)-1H-pyrazol-1-yl]pyrrolidin-1-yl]-3-oxopropanenitrile]	≤ 100	> 10000
O=C(C1CC1)N1CC[C@@H](n2cc(Oc3nc(O)c4ccncc4n3)cn2)C1 [Example 131, 2-({1-[(3R)-1-cyclopropanecarbonylpyrrolidin-3-yl]-1H-pyrazol-4-yl}oxy)pyrido[3,4-d]pyrimidin-4-ol]	≤ 100	1000 to 10000
O=C(c1ccccc1)N1CC[C@@H](n2cc(Oc3nc(O)c4ccncc4n3)cn2)C1 [Example 132, 2-({1-[(3R)-1-benzoylpyrrolidin-3-yl]-1H-pyrazol-4-yl}oxy)pyrido[3,4-d]pyrimidin-4-ol]	≤ 100	1000 to 10000
Oc1nc(Oc2cnn([C@@H]3CCN(Cc4ccccc4)C3)c2)nc2cnccc12 [Example 133, 2-({1-[(3R)-1-benzylpyrrolidin-3-yl]-1H-pyrazol-4-yl}oxy)pyrido[3,4-d]pyrimidin-4-ol]	≤ 100	1000 to 10000
Oc1nc(Oc2cnn([C@@H]3CCN(c4ccc(F)cc4)C3)c2)nc2cnccc12 [Example 134, 2-({1-[(3R)-1-(4-fluorophenyl)pyrrolidin-3-yl]-1H-pyrazol-4-yl}oxy)pyrido[3,4-d]pyrimidin-4-ol]	≤ 100	100 to 1000
Oc1nc(Oc2cnn([C@H]3CCNC3)c2)nc2cnccc12 [Example 135, 2-({1-[(3S)-pyrrolidin-3-yl]-1H-pyrazol-4-yl}oxy)pyrido[3,4-d]pyrimidin-4-ol]	100 to 1000	> 10000
CCS(=O)(=O)N1CC[C@H](n2cc(Oc3nc(O)c4ccncc4n3)cn2)C1 [Example 136, 2-({1-[(3S)-1-(ethanesulfonyl)pyrrolidin-3-yl]-1H-pyrazol-4-yl}oxy)pyrido[3,4-d]pyrimidin-4-ol]	≤ 100	100 to 1000
